Experimental data as given in publication PMC7196072, “Cryo-EM structures of PAC1 receptor reveal ligand binding mechanism” (Cell Research, 2020).
Like-named read-outs stand apart in the source and are kept apart here.

Tests used:
[1] = cited from earlier work
From the text: As the major sensory and vasodilator neuropeptides, PACAP38 and VIP are involved in parasympathetic communication with the cranial vasculature. Abnormal activation and sensitization of the central trigeminovascular pain pathway mediate migraine and the release of these peptides.[5]

[2] = test system: PAC1R construct used in the cryo-EM studies; type: cell-based, human; conditions: cAMP, BacMam CHO-K1, pH 7.4, 30 min 37 °C, average ± SD, N=3
Description: WT PAC1R and mutations used in the functional assay were cloned into pJIF1.1 for BacMam virus generation.
CHO-K1 cells were cultured in DMEM supplemented with 10% FBS and infected with BacMam viruses with a MOI of 100. 24 h after infection, cells were collected for membrane preparation or functional assay.
Activation of WT PAC1R and mutants was measured based on intracellular cAMP levels using Lance Ultra cAMP kit (PerkinElmer) according to the manufacturer’s protocol. […] Then 5 µL of 4× Eu-cAMP and 5 µL of 4× Ulight-Anti-cAMP working solutions were added to each well and incubated at room temperature for 60 min before reading with Envision (PerkinElmer). All signals (ratio of 665 nm/615 nm) were fit with a sigmoidal dose-response model using GraphPad Prism 7.
Both the average and S.D.
are calculated based 3 rounds of independent assays in 3 different days (N=3), and on each
day, duplicates were run for each dose on dose response curves.
# Ratio to WT is calculated as EC50 of mutation to EC50 of WT.
† The best-fit value of pEC50 from 3 different assays was used to calculate p value in T-test,
between WT and each mutation, with 2-tailed and equal variance (homoscedastic).

CC[C@H](C)[C@H](NC(=O)CNC(=O)[C@H](CC(=O)O)NC(=O)[C@H](CO)NC(=O)[C@@H](N)Cc1cnc[nH]1)C(=O)N[C@@H](Cc1ccccc1)C(=O)N[C@H](C(=O)N[C@@H](CC(=O)O)C(=O)N[C@@H](CO)C(=O)N[C@@H](Cc1ccc(O)cc1)C(=O)N[C@@H](CO)C(=O)N[C@@H](CCCNC(=N)N)C(=O)N[C@@H](Cc1ccc(O)cc1)C(=O)N[C@@H](CCCNC(=N)N)C(=O)N[C@@H](CCCCN)C(=O)N[C@@H](CCC(N)=O)C(=O)N[C@@H](CCSC)C(=O)N[C@@H](C)C(=O)N[C@H](C(=O)N[C@@H](CCCCN)C(=O)N[C@@H](CCCCN)C(=O)N[C@@H](Cc1ccc(O)cc1)C(=O)N[C@@H](CC(C)C)C(=O)N[C@@H](C)C(=O)N[C@@H](C)C(=O)N[C@H](C(=O)N[C@@H](CC(C)C)C(=O)NCC(=O)N[C@@H](CCCCN)C(=O)N[C@@H](CCCNC(=N)N)C(=O)N[C@@H](Cc1ccc(O)cc1)C(=O)N[C@@H](CCCCN)C(=O)N[C@@H](CCC(N)=O)C(=O)N[C@@H](CCCNC(=N)N)C(=O)N[C@H](C(=O)N[C@@H](CCCCN)C(=O)N[C@@H](CC(N)=O)C(=O)N[C@@H](CCCCN)C(N)=O)C(C)C)C(C)C)C(C)C)[C@@H](C)O [PACAP38, pituitary adenylate cyclase-activating polypeptide]
induction of delayed migraine-like headaches ([1]; in vivo, iv): induces delayed migraine-like headaches | pEC50 [2]: 9.71 ± 0.21

vasoactive intestinal polypeptide [VIP]
induction of delayed migraine-like headaches ([1]; intravenous infusion): but not VIP induces delayed migraine-like headaches
